Test results from PubChem BioAssay AID2060606 (Molecular Pharmacology Branch, DTP, NCI, 2025).
Blank lines part the entries; values can stand above or below the molecule they belong to.

System: 922993-354-T-J3-PDC complex spheroids, viability, % test/control
Assay: Anticancer human tumor 922993-354-T-J3-PDC patient-derived endometrial carcinoma cell line growth inhibition [CLK]
Conditions: for IC50: curve of first compound; for viability, T/C: stronger effect = lower value
In short: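 Multi-cell-type spheroids combined patient-derived tumor cells with HUVEC endothelial cells and human mesenchymal stem cells. Paired agents were dosed in half-log steps down from about clinical Cmax, or from 10 microM where Cmax was unknown.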

[1] = second compound 0.0316 µM, first compound 0.0316 µM
[2] = second compound 0.0316 µM, first compound 0.1 µM
[3] = second compound 0.0316 µM, first compound 0.316 µM
[4] = second compound 0.0316 µM, first compound 1 µM
[5] = second compound 0.0316 µM, first compound 3.16 µM
[6] = second compound 0.0316 µM, first compound 10 µM
[7] = second compound 0.1 µM, first compound 0.0316 µM
[8] = second compound 0.1 µM, first compound 0.1 µM
[9] = second compound 0.1 µM, first compound 0.316 µM
[10] = second compound 0.1 µM, first compound 1 µM
[11] = second compound 0.1 µM, first compound 3.16 µM
[12] = second compound 0.1 µM, first compound 10 µM
[13] = second compound 0.316 µM, first compound 0.0316 µM
[14] = second compound 0.316 µM, first compound 0.1 µM
[15] = second compound 0.316 µM, first compound 0.316 µM
[16] = second compound 0.316 µM, first compound 1 µM
[17] = second compound 0.316 µM, first compound 3.16 µM
[18] = second compound 0.316 µM, first compound 10 µM
[19] = second compound 1 µM, first compound 0.0316 µM
[20] = second compound 1 µM, first compound 0.1 µM
[21] = second compound 1 µM, first compound 0.316 µM
[22] = second compound 1 µM, first compound 1 µM
[23] = second compound 1 µM, first compound 3.16 µM
[24] = second compound 1 µM, first compound 10 µM
[25] = second compound 3.16 µM, first compound 0.0316 µM
[26] = second compound 3.16 µM, first compound 0.1 µM
[27] = second compound 3.16 µM, first compound 0.316 µM
[28] = second compound 3.16 µM, first compound 1 µM
[29] = second compound 3.16 µM, first compound 3.16 µM
[30] = second compound 3.16 µM, first compound 10 µM
[31] = second compound 10 µM, first compound 0.0316 µM
[32] = second compound 10 µM, first compound 0.1 µM
[33] = second compound 10 µM, first compound 0.316 µM
[34] = second compound 10 µM, first compound 1 µM
[35] = second compound 10 µM, first compound 3.16 µM
[36] = second compound 10 µM, first compound 10 µM
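Also: spheroids exposed to the agents for 7 days before readout.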

IC50 (second compound 0.0316 µM): < 0.0316 µM
IC50 (second compound 0.1 µM): < 0.0316 µM
IC50 (second compound 0.316 µM): < 0.0316 µM
IC50 (second compound 1 µM): < 0.0316 µM
IC50 (second compound 3.16 µM): < 0.0316 µM
IC50 (second compound 10 µM): < 0.0316 µM
SMILES: Nc1ccn(C2OC(CO)C(O)C2(F)F)c(=O)n1 (stereo unspecified) + CNC(=O)c1ccc(Nc2nc(OC3CCCC3)c3c(-c4ccc5nc(C)oc5c4)c[nH]c3n2)c(OC)c1
viability, T/C [1]: 15.7%
viability, T/C [2]: 17.5%
viability, T/C [3]: 18%
viability, T/C [4]: 16.6%
viability, T/C [5]: 15.5%
viability, T/C [6]: 18.3%
viability, T/C [7]: 17.9%
viability, T/C [8]: 16.2%
viability, T/C [9]: 15.7%
viability, T/C [10]: 14.9%
viability, T/C [11]: 12.5%
viability, T/C [12]: 17.3%
viability, T/C [13]: 15.7%
viability, T/C [14]: 15.5%
viability, T/C [15]: 16.5%
viability, T/C [16]: 18.1%
viability, T/C [17]: 16.9%
viability, T/C [18]: 17.2%
viability, T/C [19]: 14.7%
viability, T/C [20]: 14.6%
viability, T/C [21]: 12.9%
viability, T/C [22]: 13.3%
viability, T/C [23]: 14.8%
viability, T/C [24]: 13.2%
viability, T/C [25]: 13.6%
viability, T/C [26]: 15.8%
viability, T/C [27]: 11.8%
viability, T/C [28]: 12.4%
viability, T/C [29]: 12.9%
viability, T/C [30]: 13.1%
viability, T/C [31]: 13%
viability, T/C [32]: 12.5%
viability, T/C [33]: 10.8%
viability, T/C [34]: 11.6%
viability, T/C [35]: 12.7%
viability, T/C [36]: 11.4%

IC50 (second compound 0.0316 µM): > 10 µM
IC50 (second compound 0.1 µM): > 10 µM
IC50 (second compound 0.316 µM): > 10 µM
IC50 (second compound 1 µM): < 0.0316 µM
IC50 (second compound 3.16 µM): < 0.0316 µM
IC50 (second compound 10 µM): < 0.0316 µM
SMILES: O=C(c1cc(Cc2n[nH]c(=O)c3ccccc23)ccc1F)N1CCN(C(=O)C2CC2)CC1 + CNC(=O)c1ccc(Nc2nc(OC3CCCC3)c3c(-c4ccc5nc(C)oc5c4)c[nH]c3n2)c(OC)c1
viability, T/C [1]: 99.4%
viability, T/C [2]: 106%
viability, T/C [3]: 101%
viability, T/C [4]: 106%
viability, T/C [5]: 110%
viability, T/C [6]: 101%
viability, T/C [7]: 104%
viability, T/C [8]: 107%
viability, T/C [9]: 98.3%
viability, T/C [10]: 105%
viability, T/C [11]: 111%
viability, T/C [12]: 101%
viability, T/C [13]: 73.5%
viability, T/C [14]: 72.1%
viability, T/C [15]: 67.1%
viability, T/C [16]: 66.5%
viability, T/C [17]: 66%
viability, T/C [18]: 51.8%
viability, T/C [19]: 36.1%
viability, T/C [20]: 38.5%
viability, T/C [21]: 32.3%
viability, T/C [22]: 35.6%
viability, T/C [23]: 44.1%
viability, T/C [24]: 39%
viability, T/C [25]: 32.2%
viability, T/C [26]: 36.8%
viability, T/C [27]: 25.4%
viability, T/C [28]: 34%
viability, T/C [29]: 28.4%
viability, T/C [30]: 33.5%
viability, T/C [31]: 34.1%
viability, T/C [32]: 24.7%
viability, T/C [33]: 31.5%
viability, T/C [34]: 34.2%
viability, T/C [35]: 34.8%
viability, T/C [36]: 33.8%

IC50 (second compound 0.0316 µM): 7.51 µM
IC50 (second compound 0.1 µM): 4.99 µM
IC50 (second compound 0.316 µM): 4.06 µM
IC50 (second compound 1 µM): < 0.0316 µM
IC50 (second compound 3.16 µM): < 0.0316 µM
IC50 (second compound 10 µM): < 0.0316 µM
SMILES: O=c1[nH]cc(F)c(=O)[nH]1 + CNC(=O)c1ccc(Nc2nc(OC3CCCC3)c3c(-c4ccc5nc(C)oc5c4)c[nH]c3n2)c(OC)c1
viability, T/C [1]: 110%
viability, T/C [2]: 104%
viability, T/C [3]: 103%
viability, T/C [4]: 103%
viability, T/C [5]: 75.5%
viability, T/C [6]: 41.6%
viability, T/C [7]: 91.3%
viability, T/C [8]: 119%
viability, T/C [9]: 106%
viability, T/C [10]: 98.2%
viability, T/C [11]: 64.3%
viability, T/C [12]: 28.3%
viability, T/C [13]: 68%
viability, T/C [14]: 64%
viability, T/C [15]: 57.7%
viability, T/C [16]: 60.7%
viability, T/C [17]: 56.5%
viability, T/C [18]: 29.9%
viability, T/C [19]: 34%
viability, T/C [20]: 40.4%
viability, T/C [21]: 33.7%
viability, T/C [22]: 31.7%
viability, T/C [23]: 32.9%
viability, T/C [24]: 23.9%
viability, T/C [25]: 33.4%
viability, T/C [26]: 37.3%
viability, T/C [27]: 31.5%
viability, T/C [28]: 29.5%
viability, T/C [29]: 28.5%
viability, T/C [30]: 20.8%
viability, T/C [31]: 35.1%
viability, T/C [32]: 30.4%
viability, T/C [33]: 29%
viability, T/C [34]: 29%
viability, T/C [35]: 31.2%
viability, T/C [36]: 19.7%
